We go through two molecules from publication PMC8528301 (PLoS ONE, 2021).

Each structure is given as a SMILES string.

The test system of series [1] is BCR-ABL Arf-/- Luc+ ALL cells. In words: Survival study of mice with BCR-ABL Arf-/- leukemia on discontinuous DEX regimen. It is filed as in vivo, mouse. Conditions: for median survival time: BCR-ABL Arf-/- ALL, discontinuous DEX. The source says: Murine BCR-ABL Arf^-/- Luc^+ ALL cells were created by Dr. Charles Sherr (St. Jude Children’s Research Hospital) and provided immediately prior to mouse injection by the laboratory of Dr. Mary Relling (St. Jude Children’s Research Hospital). The cells had been tested for mycoplasma and were authenticated by flow cytometry for cell surface markers, tested for their leukemia-inducing capabilities with serial dilutions of cell numbers (from 2 million down to 2,000 cells), and ensured that the cells with the luciferase constructs produced light when combined with luciferin. Only cells from early passage (P3-P15) were used for these experiments. The St Jude Children’s Research Hospital Institutional Biosafety Committee and IACUC approved the use of these cells for injection into mice. C57BL/6 VD3 sufficient (n = 24) and deficient (n = 22) male mice (8–18 wk of age) were anaesthetized using isoflurane and injected iv with 2,000 BCR-ABL Arf^-/- Luc^+ ALL cells on day zero. […] Xenogen IVIS-200 (Caliper Life Sciences, Hopkinton, MA) was used to acquire bioluminescent images 5 minutes post-intra peritoneal injection of 200 μL of 100 mg/kg D-Luciferin (Caliper Life Sciences, Hopkinton, MA). Mice were anaesthetized with isoflurane during this procedure. The bioluminescent signal (photons/s) from a fixed region of interest (ROI) is used to monitor the disease progression twice every week. Images acquired here were analyzed using Living Image 3.1 software (Caliper Life Sciences), where whole body luciferase flux measurements (photons/s) were quantified as disease burden. Animal Welfare: All efforts were taken to minimize suffering and distress in the survival studies. […] All other mice in the survival study were euthanized within hours of reaching the humane end point/end of study = moribund for any reason which was determined based on hind limb paralysis (very typically observed in mice with BCR-ABL ALL), scruffy coat, lethargy or an inability to obtain food or water (SJ IACUC protocol #100468–613). A portion of spleen and hind limb were fixed, paraffin embedded, cut, and slides stained with hematoxylin and eosin and evaluated by a St Jude Pathologist (Dr. Laura Janke) to confirm leukemia was the cause of death.

The subject of series [2] is GCR. Conditions: read-out: GCR EC50; printed in Fig 9; ref J Biol Chem. 2002 Jan 11; PMID: 11682470; cited from earlier work.
In series [3] the test system is PXR. Conditions: cited from earlier work.
Series [4] can be described thus: Dasatinib disposition in bile duct cannulated rats (literature). It is filed as in vivo, rat.

A word on the EC50: it is the concentration giving half of the maximal effect. Broadly, the Kd is the free concentration of one partner at which half of the binding sites on the other are occupied at equilibrium, for simple one-to-one binding. Consider `C[C@@H]1C[C@H]2[C@@H]3CCC4=CC(=O)C=C[C@]4(C)[C@@]3(F)[C@@H](O)C[C@]2(C)[C@@]1(O)C(=O)CO` [DEX, dexamethasone], for which the figures for the median survival time in series [1] (DEX-treated VD3 deficient male mice) and in series [1] (DEX-treated VD3 sufficient male mice) were 59 days and 36 days, respectively. In addition, the Survival proportions is 100 in series [1] (VD3 Deficient, days survived 0); 90.5 in series [1] (VD3 Deficient, days survived 22); 85.7 in series [1] (VD3 Deficient, days survived 24); 81 in series [1] (VD3 Deficient, days survived 32); 76.2 in series [1] (VD3 Deficient, days survived 36); 71.4 in series [1] (VD3 Deficient, days survived 38). For the same molecule, the Survival proportions came to 61.9 in series [1] (VD3 Deficient, days survived 48); 57.1 in series [1] (VD3 Deficient, days survived 55); 47.6 in series [1] (VD3 Deficient, days survived 59); 100 in series [1] (VD3 Sufficient, days survived 0); 90.9 in series [1] (VD3 Sufficient, days survived 15); 86.4 in series [1] (VD3 Sufficient, days survived 22). For the same molecule, the Survival proportions in series [1] (VD3 Sufficient, days survived 23) was 81.8; in series [1] (VD3 Sufficient, days survived 25) it was 72.7; in series [1] (VD3 Sufficient, days survived 32) it was 63.6; in series [1] (VD3 Sufficient, days survived 34), 59.1; in series [1] (VD3 Sufficient, days survived 35) it was 54.5; in series [1] (VD3 Sufficient, days survived 37), 45.5. Further, the Survival proportions is 40.9 in series [1] (VD3 Sufficient, days survived 38); 27.3 in series [1] (VD3 Sufficient, days survived 48); 22.7 in series [1] (VD3 Sufficient, days survived 55); 18.2 in series [1] (VD3 Sufficient, days survived 59). Moreover, the EC50 is 11 nM in series [2] and 30 µM in series [3] (printed in Fig 9, ref Kliewer SA, et al. Cell. 1998). In addition, the dissociation constant Kd in series [3] (relatively weak PXR agonist, no reference given, read-out: Kd as PXR agonist) was ~30 µM.

`Cc1nc(Nc2ncc(C(=O)Nc3c(C)cccc3Cl)s2)cc(N2CCN(CCO)CC2)n1` [dasatinib] had a percentage absorbed in series [4] (bile duct cannulated rats, inferred from unchanged drug) of 67%. Further, in series [4] (rats), the “share of absorbed drug that might undergo hepatic metabolism” value is reported as 60% and the “share of total drug that might undergo hepatic metabolism” value is on record as “at least 40%”.
